Measurements reported in patent publication US11964950B2, “Arylamide derivative having antitumor activity” (priority 2020, dated 2024).

What was measured:
[1] = system: Calu-6 human lung cancer cells; experiment: Cell proliferation-inhibiting activity, Calu-6 (CellTiter-Glo, ATP in viable cells); type: cell-based; conditions: Calu-6, 96 h, Table 3, 4 days culture
Experimental: (§1) The cell proliferation-inhibiting activity of the compounds listed in Table 3 below was evaluated by measuring the amount of ATP in viable cells as described below.
(§2) The test compound was serially diluted with DMSO and then diluted 25-fold with Ca^2+, Mg^2+-free phosphate-buffered saline, and was then dispensed into a 96-well plate at 5 μL per well. A cell suspension containing the below indicated concentration of A549, Calu-6 or NCI-H2122 human lung cancer cells (all obtained from ATCC) was prepared using the below indicated medium with the addition of 10% fetal bovine serum (Sigma). The cell suspension was dispensed into the test compound-added plate at 95 μL per well and cultured in a 5% carbon dioxide gas incubator at 37° C. After 4 days, 80 μL of CellTiter-Glo (registered trademark) (Promega Corp.) was added to each well and the bioluminescence was measured with a fluorescent plate reader.
Calu-6: Eagle's Minimum Essential Medium (Sigma); 4000 cells/95 μL

[2] = system: A549 human lung cancer cells; experiment: Cell proliferation-inhibiting activity, A549 (CellTiter-Glo, ATP in viable cells); type: cell-based; conditions: A549, 96 h, Table 3, 4 days culture
Experimental: as §1, §2
A549: Dulbecco's Modified Eagle's Medium (Sigma); 2000 cells/95 μL

[3] = Human liver microsome stability; type: in vitro ADME; conditions: human liver microsomes (XENOTECH), pH 7.4, hepatic intrinsic clearance, NADPH, 37° C.
Experimental: There were dispensed 400 μL of 1 mg/mL human liver microsomes (XENOTECH)/0.1 M potassium phosphate buffer (pH 7.4) into each well of a 96-well plate. A DMSO solution (4 μL) of 200 μM test compound was then added, and incubation was conducted until reaching 37° C. To this reaction mixture (200 μL) there was added a solution (200 μL) containing 2 mM NADPH (ORIENTAL YEAST)/0.1 M potassium phosphate buffer (pH 7.4) that had been incubated at 37° C. At 0 min, 5 min, 15 min or 30 min after addition, the reaction mixture (50 μL) was added to acetonitrile (100 μL) to stop the metabolic reaction. After the metabolic reaction was stopped, a 1 μM warfarin aqueous solution (50 μL) was added to each reaction mixture as an internal standard. The reaction mixture was filtered and analyzed by LC/MS/MS (LC: NEXERA by Shimadzu; MS: 4000Q trap by ABSciex; column: Ascentis Express C18 HPLC column (5 cm×2.1 mm, 2.7 μm); ionization method: electrospray ionization). The percent remaining relative to the amount of test compound at 0 min was calculated from the obtained peak area ratio of the test compound to internal standard. The elimination rate constant (ke) was calculated from the incubation time and percent remaining using the primary elimination rate equation, and the hepatic intrinsic clearance (CLint) was calculated using the formula shown below. CLint (μL/min/mg)=ke (min^−1)/human liver microsome concentration (mg protein/μL)

In the case of CC1(NS(=O)(=O)Nc2cccc(Cc3cc(C(=O)NC4CC4)c(Nc4ccc(I)cc4F)c(F)c3F)c2F)CCC1 [D-10, N-Cyclopropyl-3,4-difluoro-2-(2-fluoro-4-iodoanilino)-5-[[2-fluoro-3-[(1-methylcyclobutyl)sulfamoylamino]phenyl]methyl]benzamide], the IC50 [1] is reported as 0.307 µM.
Work on NC(=O)c1cc(Cc2cccc(NS(=O)(=O)C3COC3)c2F)c(F)c(F)c1Nc1ccc(I)cc1F [E-21, 3,4-Difluoro-2-(2-fluoro-4-iodoanilino)-5-[[2-fluoro-3-(oxetan-3-ylsulfonylamino)phenyl]methyl]benzamide] yielded an IC50 [1] of 0.109 µM.
With NC(=O)c1cc(Cc2cccc(NS(=O)(=O)C3CCC3)c2F)c(F)c(F)c1Nc1ccc(I)cc1F [E-20, 5-[[3-(Cyclobulsulfonylamino)-2-fluorophenyl]methyl]-3,4-difluoro-2-(2-fluoro-4-iodoanilino)benzamide] the IC50 [1] was 0.103 µM.
With COCCS(=O)(=O)Nc1cccc(Cc2cc(C(N)=O)c(Nc3ccc(I)cc3F)c(F)c2F)c1 [F-3, 3,4-Difluoro-2-(2-fluoro-4-iodoanilino)-5-[[3-(2-methoxyethylsulfonylamino)phenyl]methyl]benzamide] the IC50 [1] was 0.118 µM.
Cc1c(Nc2ccc(I)cc2F)c(C(N)=O)cn(Cc2ccnc(NS(=O)(=O)NC3(C)CCC3)c2F)c1=O [P-3, 4-(2-Fluoro-4-iodoanilino)-1-[[3-fluoro-2-[(1-methylcyclobutyl)sulfamoylamino]pyridin-4-yl]methyl]-5-methyl-6-oxopyridine-3-carboxamide] gave an IC50 [1] of 0.223 µM.
In the case of CCCNS(=O)(=O)Nc1nccc(Cn2cc(C(N)=O)c(Nc3ccc(I)cc3F)c(F)c2=O)c1F [N-2, 5-fluoro-4-(2-fluoro-4-iodoanilino)-1-[[3-fluoro-2-(propylsulfamoylamino)pyridin-4-yl]methyl]-6-oxopyridine-3-carboxamide], the IC50 [2] is reported as 0.193 µM.
Molecule COCCNS(=O)(=O)Nc1nccc(Cc2cc(C(N)=O)c(Nc3ccc(I)cc3F)n(C)c2=O)c1F [J-2, 2-(2-Fluoro-4-iodoanilino)-5-[[3-fluoro-2-(2-methoxyethylsulfamoylamino)pyridin-4-yl]methyl]-1-methyl-6-oxopyridine-3-carboxamide] has an IC50 [2] of 0.351 µM.
For CS(=O)(=O)Nc1cccc(Cc2cc(C(N)=O)c(Nc3ccc(I)cc3F)c(F)c2F)c1F [E-13, 3,4-difluoro-2-(2-fluoro-4-iodoanilino)-5-[[2-fluoro-3-(methanesulfonamide)phenyl]methyl]benzamide], the microsomal CLint at 0.99 µM [3] was 25 µL/min/mg.
CCNS(=O)(=O)Nc1nccc(Cc2cc(C(N)=O)c(Nc3ccc(I)cc3F)n(C)c2=O)c1F [J-14, 5-[[2-(ethylsulfamoylamino)-3-fluoropyridin-4-yl]methyl]-2-(2-fluoro-4-iodoanilino)-1-methyl-6-oxopyridine-3-carboxamide] showed an IC50 [1] of 0.123 µM and an IC50 [2] of 0.121 µM.
For CCS(=O)(=O)Nc1cccc(Cc2cc(C(=O)NC3CC3)c(Nc3ccc(I)cc3F)c(F)c2F)c1F [D-8, N-Cyclopropyl-5-[[3-(ethylsulfonylamino)-2-fluorophenyl]methyl]-3,4-difluoro-2-(2-fluoro-4-iodoanilino)benzamide], the IC50 [1] was 0.112 µM.
Molecule COCCNS(=O)(=O)Nc1nccc(Cc2cc(C(N)=O)c(Nc3ccc(I)cc3F)cc2F)c1F [1-4, 4-Fluoro-2-(2-fluoro-4-iodoanilino)-5-[[3-fluoro-2-(2-methoxyethylsulfamoylamino)pyridin-4-yl]methyl]benzamide] has an IC50 [2] of 0.444 µM.
For Cn1c(Nc2ccc(I)cc2F)c(C(N)=O)cc(Cc2ccnc(NS(=O)(=O)NC3(C)CCC3)c2F)c1=O [J-15, 2-(2-Fluoro-4-iodoanilino)-5-[[3-fluoro-2-[(1-methylcyclobutyl)sulfamoylamino]pyridin-4-yl]methyl]-1-methyl-6-oxopyridine-3-carboxamide], the IC50 [1] was 0.284 µM.
For CCS(=O)(=O)Nc1cccc(Cc2cc(C(=O)NC3CC3)c(Nc3ccc(I)cc3F)n(C)c2=O)c1F [K-8, N-Cyclopropyl-5-[[3-(ethylsulfonylamino)-2-fluorophenyl]methyl]-2-(2-fluoro-4-iodoanilino)-1-methyl-6-oxopyridine-3-carboxamide], the IC50 [1] was 0.122 µM.
CCCS(=O)(=O)Nc1nccc(Cc2cc(C(N)=O)c(Nc3ccc(I)cc3F)c(F)c2F)c1F [B-8, 3,4-Difluoro-2-(2-fluoro-4-iodoanilino)-5-[[3-fluoro-2-(propylsulfonylamino)pyridin-4-yl]methyl]benzamide] gave an IC50 [1] of 0.233 µM.
Work on NC(=O)c1cc(Cc2cccc(NS(=O)(=O)CCCF)c2F)c(F)c(F)c1Nc1ccc(I)cc1F [E-15, 3,4-Difluoro-5-[[2-fluoro-3-(3-fluoropropylsulfonylamino)phenyl]methyl]-2-(2-fluoro-4-iodoanilino)benzamide] yielded an IC50 [1] of 0.152 µM.
Work on CCS(=O)(=O)Nc1nccc(Cc2cc(C(=O)NC3CC3)c(Nc3ccc(C4CC4)cc3F)c(F)c2F)c1F [G-7, N-Cyclopropyl-2-(4-cyclopropyl-2-fluoroanilino)-5-[[2-(ethylsulfonylamino)-3-fluoropyridin-4-yl]methyl]-3,4-difluorobenzamide] yielded an IC50 [1] of 0.443 µM.
CCNS(=O)(=O)Nc1nccc(Cc2cc(C(N)=O)c(Nc3ccc(I)cc3F)cc2F)c1F [1-2, 5-[[2-(Ethylsulfamoylamino)-3-fluoropyridin-4-yl]methyl]-4-fluoro-2-(2-fluoro-4-iodoanilino)benzamide] showed an IC50 [1] of 0.103 µM.
With COCCNS(=O)(=O)Nc1nccc(Cc2cc(C(=O)NOC)c(Nc3ccc(I)cc3F)n(C)c2=O)c1F [J-9, 2-(2-Fluoro-4-iodoanilino)-5-[[3-fluoro-2-(2-methoxyethylsulfamoylamino)pyridin-4-yl]methyl]-N-methoxy-1-methyl-6-oxopyridine-3-carboxamide] the IC50 [1] was 0.232 µM and the IC50 [2] was 0.167 µM.
In the case of COCCNS(=O)(=O)Nc1nccc(Cc2cc(C(=O)NC3CC3)c(Nc3ccc(I)cc3F)n(C)c2=O)c1F [J-7, N-Cyclopropyl-2-(2-fluoro-4-iodoanilino)-5-[[3-fluoro-2-(2-methoxyethylsulfamoylamino)pyridin-4-yl]methyl]-1-methyl-6-oxopyridine-3-carboxamide], the IC50 [2] is reported as 0.101 µM.
Molecule CCS(=O)(=O)Nc1nccc(Cc2cc(C(N)=O)c(Nc3ccc(I)cc3F)c(F)c2F)c1F [A-38, 5-[[2-(Ethylsulfonylamino)-3-fluoropyridin-4-yl]methyl]-3,4-difluoro-2-(2-fluoro-4-iodoanilino)benzamide] has an IC50 [1] of 0.122 µM.
CCCS(=O)(=O)Nc1cccc(Cc2cc(C(N)=O)c(Nc3ccc(I)cc3F)c(F)c2F)c1F [E-18, 3,4-Difluoro-2-(2-fluoro-4-iodoanilino)-5-[[2-fluoro-3-(propylsulfonylamino)phenyl]methyl]benzamide] showed an IC50 [1] of 0.122 µM.
For CNS(=O)(=O)Nc1nccc(Cc2cc(C(=O)NOC)c(Nc3ccc(Cl)cc3F)c(F)c2F)c1F [G-4, 2-(4-Chloro-2-fluoroanilino)-3,4-difluoro-5-[[3-fluoro-2-(methylsulfamoylamino)pyridin-4-yl]methyl]-N-methoxybenzamide], the IC50 [1] was 0.259 µM.
In the case of Cn1c(Nc2ccc(I)cc2F)c(C(N)=O)cc(Cc2ccnc(NS(=O)(=O)NC3CC3)c2F)c1=O [J-13, 5-[[2-(Cyclopropylsulfamoylamino)-3-fluoropyridin-4-yl]methyl]-2-(2-fluoro-4-iodoanilino)-1-methyl-6-oxopyridine-3-carboxamide], the IC50 [1] is reported as 0.281 µM and the IC50 [2] is reported as 0.196 µM.
In the case of CCS(=O)(=O)Nc1cc(Cc2cc(C(N)=O)c(Nc3ccc(I)cc3F)n(C)c2=O)ccn1 [J-12, 5-[[2-(Ethylsulfonylamino)pyridin-4-yl]methyl]-2-(2-fluoro-4-iodoanilino)-1-methyl-6-oxopyridine-3-carboxamide], the IC50 [1] is reported as 0.471 µM and the IC50 [2] is reported as 0.226 µM.
With CCS(=O)(=O)Nc1nccc(Cn2cc(C(=O)NOC)c(Nc3ccc(I)cc3F)c(C)c2=O)c1F [P-5, 1-[[2-(ethylsulfonylamino)-3-fluoropyridin-4-yl]methyl]-4-(2-fluoro-4-iodoanilino)-N-methoxy-5-methyl-6-oxopyridine-3-carboxamide] the IC50 [1] was 0.447 µM.
CC1(NS(=O)(=O)Nc2nccc(Cc3cc(C(=O)NC4CC4)c(Nc4ccc(I)cc4F)c(F)c3F)c2F)CCC1 [A-47, N-Cyclopropyl-3,4-difluoro-2-(2-fluoro-4-iodoanilino)-5-[[3-fluoro-2-[(1-methylcyclobutyl)sulfamoylamino]pyridin-4-yl]methyl]benzamide] gave an IC50 [1] of 0.104 µM.
